According to US9862707B2, “TrkA kinase inhibitors, compositions and methods thereof” (Merck Sharp & Dohme Corp., priority 2014, dated 2018):

molecular target: human TrkA receptor (Homo sapiens (Human), UniProt P04629); experiment: TrkA functional activity, DiscoverX PathHunter assay; format: cell-based; conditions: U2OS cells expressing human TrkA-PK, Shc1-EA and p75NTR; compound 1 h, then NGF at ~80% of maximal response for 3 h; luminescence
Sequence (P04629 33-796): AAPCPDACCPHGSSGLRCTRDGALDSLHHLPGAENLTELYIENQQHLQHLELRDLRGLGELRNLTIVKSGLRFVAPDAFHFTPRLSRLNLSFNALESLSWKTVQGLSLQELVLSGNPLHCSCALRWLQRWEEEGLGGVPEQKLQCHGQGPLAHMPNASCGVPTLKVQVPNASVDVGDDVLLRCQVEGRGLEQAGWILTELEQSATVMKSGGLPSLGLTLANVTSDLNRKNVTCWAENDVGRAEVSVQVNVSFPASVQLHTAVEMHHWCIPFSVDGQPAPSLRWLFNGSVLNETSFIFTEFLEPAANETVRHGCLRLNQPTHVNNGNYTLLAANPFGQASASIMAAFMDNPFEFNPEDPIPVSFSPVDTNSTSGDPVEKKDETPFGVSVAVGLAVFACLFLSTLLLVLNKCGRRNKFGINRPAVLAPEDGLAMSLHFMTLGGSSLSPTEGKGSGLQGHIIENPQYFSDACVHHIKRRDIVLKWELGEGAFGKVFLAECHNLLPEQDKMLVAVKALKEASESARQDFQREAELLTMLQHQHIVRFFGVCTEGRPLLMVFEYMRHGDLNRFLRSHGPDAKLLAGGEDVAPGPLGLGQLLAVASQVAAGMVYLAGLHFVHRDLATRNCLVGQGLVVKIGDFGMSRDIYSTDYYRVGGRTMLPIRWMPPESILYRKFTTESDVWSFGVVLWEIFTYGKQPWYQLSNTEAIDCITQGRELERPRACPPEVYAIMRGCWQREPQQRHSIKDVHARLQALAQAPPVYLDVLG

Point of comparison: `O=C(Nc1c2ncc(C(O)CO)cc2nn1-c1ccccc1)c1cc(-c2ncccn2)c(C(F)(F)F)cc1Cl` (single isomer, unassigned; isomer b) [Compound 65, (R or S)-2-chloro-N-[6-(1,2-dihydroxyethyl)-2-phenyl-2H-pyrazolo[4,3-b]pyridin-3-yl]-5-pyrimidin-2-yl-4-(trifluoromethyl)benzamide, isomer B], IC50 29 nM. Against it:
- NC(=O)c1ccc2nn(-c3ccccc3)c(NC(=O)c3cc(-c4ncccn4)c(C(F)(F)F)cc3F)c2n1 [Compound 80, 3-({[2-fluoro-5-pyrimidin-2-yl-4-(trifluoromethyl)phenyl]carbonyl}amino)-2-phenyl-2H-pyrazolo[4,3-b]pyridine-5-carboxamide] — within 1.5-fold, 32 nM
- O=C(Nc1c2ncccc2nn1-c1ccccc1)c1cc(-c2ncccn2)c(C(F)(F)F)cc1F [Compound 1, 2-Fluoro-N-(2-phenyl-2H-pyrazolo[4,3-b]pyridin-3-yl)-5-pyrimidin-2-yl-4-(trifluoromethyl)benzamide] — 5.6-fold lower, 5.2 nM
- O=C(Nc1c2cc(C(O)C(F)(F)F)ccc2nn1-c1ccccc1)c1cc(-c2ncccn2)c(C(F)(F)F)cc1F (single isomer, unassigned; isomer a) [Compound 54, (R or S)-2-fluoro-N-(2-phenyl-5-(2,2,2-trifluoro-1-hydroxyethyl)-2H-indazol-3-yl)-5-(pyrimidin-2-yl)-4-(trifluoromethyl)benzamide, isomer A] — within 1.5-fold, 23 nM
